In ChEMBL document CHEMBL4840322, “Synthesis and biological evaluation of novel coumarin derivatives in rhabdoviral clearance” (Eur J Med Chem, 2021):
Activity calls are given as the source filed them. The calls are words filed in the database; no cut-off is given here.

Key:
[1] = system: Infectious hematopoietic necrosis virus; test: Inhibition of Infectious hematopoietic necrosis virus glycoprotein G assessed as antiviral activity at 25 uM measured by RT-qPCR method relative to control
[2] = system: Infectious hematopoietic necrosis virus; test: Antiviral activity against Infectious hematopoietic necrosis virus infected in Fathead minnow EPC cells assessed as inhibition of G protein expression measured after 72 hrs by RT-qPCR method; assay type: functional, organism-based
[3] = system: Infectious hematopoietic necrosis virus; test: Antiviral activity against Infectious hematopoietic necrosis virus infected in Fathead minnow EPC cells assessed as decrease in virus-induced apoptosis by measuring caspase-3 activity at 25 uM measured after 72 hrs by Caspase activity assay relative to control; assay type: functional; design: scale not given: the % may be the effect or the level left
[4] = system: Infectious hematopoietic necrosis virus; test: Antiviral activity against Infectious hematopoietic necrosis virus infected in Fathead minnow EPC cells assessed as decrease in virus-induced apoptosis by measuring caspase-8 activity at 25 uM measured after 72 hrs by Caspase activity assay relative to control; assay type: functional; design: scale not given: the % may be the effect or the level left
[5] = system: Micropterus salmoides rhabdovirus; test: Antiviral activity against micropterus salmoides rhabdo-virus infected in Grass carp GCO cells assessed as reduction of viral titre value measured after 48 to 96 hrs; assay type: functional, organism-based; conditions: time 48-96 hrs
[6] = Induction of apoptosis in Fathead minnow EPC cells assessed as viable cells measured after 72 hrs by Annexin V/PI staining based flowcytometry method (reference value: 94%); assay type: functional, Pimephales promelas
[7] = Induction of apoptosis in Fathead minnow EPC cells assessed as necrotic cells measured after 72 hrs by Annexin V/PI staining based flowcytometry method (reference value: 0.29%); assay type: functional, Pimephales promelas
[8] = system: Infectious hematopoietic necrosis virus; test: Antiviral activity against Infectious hematopoietic necrosis virus infected in Fathead minnow EPC cells assessed as inhibition of nucleoprotein gene expression at 0.1 to 100 uM measured after 72 hrs by RT-qPCR method relative to control; assay type: functional; design: scale not given: the % may be the effect or the level left; conditions: dose 0.1-100 µM
[9] = system: Infectious hematopoietic necrosis virus; test: Antiviral activity against Infectious hematopoietic necrosis virus infected in Fathead minnow EPC cells assessed as decrease in virus-induced apoptosis by measuring late apoptotic cells measured after 72 hrs by Annexin V/PI staining based flowcytometry method (reference value: 1.95%); assay type: functional; design: scale not given: the % may be the effect or the level left
[10] = Induction of apoptosis in Fathead minnow EPC cells assessed as late apoptotic cells measured after 72 hrs by Annexin V/PI staining based flowcytometry method (reference value: 1.95%); assay type: functional, Pimephales promelas
[11] = system: Infectious hematopoietic necrosis virus; test: Antiviral activity against Infectious hematopoietic necrosis virus infected in Fathead minnow EPC cells assessed as inhibition of phospho protein gene expression at 0.1 to 100 uM measured after 72 hrs by RT-qPCR method relative to control; assay type: functional; design: scale not given: the % may be the effect or the level left; conditions: dose 0.1-100 µM
[12] = system: Infectious hematopoietic necrosis virus; test: Antiviral activity against Infectious hematopoietic necrosis virus infected in Fathead minnow EPC cells assessed as inhibition of virus-cell recognition at 25 uM measured after 30 mins by RT-qPCR method; assay type: functional, organism-based
[13] = system: Infectious hematopoietic necrosis virus; test: Antiviral activity against Infectious hematopoietic necrosis virus infected in Rainbow trout fish assessed as decrease of viral proliferation in fish brain ip measured after 4 days; assay type: functional, organism-based; conditions: time 4.0 day
[14] = system: Infectious hematopoietic necrosis virus; test: Antiviral activity against Infectious hematopoietic necrosis virus infected in Fathead minnow EPC cells assessed as reduction of virus titre values at 0.25 to 25 uM measured after 72 to 96 hrs; assay type: functional, organism-based; conditions: dose 0.25-25 µM, time 72-96 hrs
[15] = Cytotoxicity against Fathead minnow EPC cells at 25 uM; assay type: cell-based; conditions: pimephales promelas
[16] = system: Infectious hematopoietic necrosis virus; test: Antiviral activity against Infectious hematopoietic necrosis virus infected in Rainbow trout fish assessed as decrease of viral proliferation in fish spleen ip measured after 4 days; assay type: functional, organism-based; conditions: time 4.0 day
[17] = Cytotoxicity against Grass carp GCO cells at 25 uM; assay type: cell-based; conditions: ctenopharyngodon idellus
[18] = system: Infectious hematopoietic necrosis virus; test: Antiviral activity against Infectious hematopoietic necrosis virus infected in Fathead minnow EPC cells at 25 uM preincubated for 1 to 4 hrs followed by compound washout and infected to EPC cells and measured after 72 hrs by RT-qPCR assay; assay type: functional, organism-based; conditions: time 1-4 hrs
[19] = system: Infectious hematopoietic necrosis virus; test: Antiviral activity against Infectious hematopoietic necrosis virus infected in Fathead minnow EPC cells assessed as decrease in virus-induced apoptosis by measuring caspase-9 activity at 25 uM measured after 72 hrs by Caspase activity assay relative to control; assay type: functional; design: scale not given: the % may be the effect or the level left
[20] = system: Infectious hematopoietic necrosis virus; test: Antiviral activity against Infectious hematopoietic necrosis virus infected in Fathead minnow EPC cells assessed as decrease in virus-induced apoptosis by measuring formation of few apoptotic bodies in cells at 100 uM measured after 72 hrs by Flowcytometry assay; assay type: functional, organism-based
[21] = system: Infectious hematopoietic necrosis virus; test: Antiviral activity against Infectious hematopoietic necrosis virus infected in Rainbow trout fish assessed as decrease of mortality rate ip measured after 4 days; assay type: functional, organism-based; conditions: time 4.0 day
[22] = system: Infectious hematopoietic necrosis virus; test: Antiviral activity against Infectious hematopoietic necrosis virus infected in Fathead minnow EPC cells assessed as decrease in virus-induced apoptosis by measuring necrotic cells measured after 72 hrs by Annexin V/PI staining based flowcytometry method (reference value: 0.29%); assay type: functional; design: scale not given: the % may be the effect or the level left
Sprivivirus cyprinus [23] = test: Antiviral activity against spring viremia of carp virus infected in Fat head minnow EPC cells assessed as inhibition of N protein gene expression at 0.1 to 100 uM by RT-qPCR method relative to control; assay type: functional; design: scale not given: the % may be the effect or the level left; conditions: dose 0.1-100 µM
Sprivivirus cyprinus [24] = test: Antiviral activity against spring viremia of carp virus infected in Fathead minnow EPC cells assessed as reduction of viral titre value measured after 48 to 96 hrs; assay type: functional, organism-based; conditions: time 48-96 hrs
[25] = system: Infectious hematopoietic necrosis virus; test: Antiviral activity against Infectious hematopoietic necrosis virus infected in Fathead minnow EPC cells assessed as decrease in virus-induced apoptosis by measuring early apoptotic cells measured after 72 hrs by Annexin V/PI staining based flowcytometry method (reference value: 3.8%); assay type: functional; design: scale not given: the % may be the effect or the level left
[26] = Induction of apoptosis in Fathead minnow EPC cells assessed as early apoptotic cells measured after 72 hrs by Annexin V/PI staining based flowcytometry method (reference value: 3.8%); assay type: functional, Pimephales promelas
[27] = system: Infectious hematopoietic necrosis virus; test: Antiviral activity against Infectious hematopoietic necrosis virus infected in Rainbow trout fish assessed as decrease of viral proliferation in fish kidney ip measured after 4 days; assay type: functional, organism-based; conditions: time 4.0 day
[28] = system: Micropterus salmoides rhabdovirus; test: Antiviral activity against micropterus salmoides rhabd-ovirus infected in Fat head minnow EPC cells assessed as inhibition of N protein gene expression at 0.1 to 100 uM by RT-qPCR method relative to control; assay type: functional; design: scale not given: the % may be the effect or the level left; conditions: dose 0.1-100 µM
[29] = system: Infectious hematopoietic necrosis virus; test: Antiviral activity against Infectious hematopoietic necrosis virus infected in Fathead minnow EPC cells assessed as decrease in virus-induced apoptosis by measuring changes in cell morphology at 10 uM measured by ultrastructural analysis; assay type: functional, organism-based
[30] = system: Infectious hematopoietic necrosis virus; test: Antiviral activity against Infectious hematopoietic necrosis virus infected in Fathead minnow EPC cells assessed as suppression of virus-induced cytopathic effect at 100 uM; assay type: functional, organism-based
[31] = system: Infectious hematopoietic necrosis virus; test: Antiviral activity against Infectious hematopoietic necrosis virus infected in Fathead minnow EPC cells assessed as inhibition of polymerase protein gene expression at 0.1 to 100 uM measured after 72 hrs by RT-qPCR method relative to control; assay type: functional; design: scale not given: the % may be the effect or the level left; conditions: dose 0.1-100 µM
[32] = system: Micropterus salmoides rhabdovirus; test: Antiviral activity against micropterus salmoides rhabdo-virus infected in Fat head minnow EPC cells assessed as inhibition of N protein gene expression by RT-qPCR method relative to control; assay type: functional, organism-based
[33] = system: Infectious hematopoietic necrosis virus; test: Antiviral activity against Infectious hematopoietic necrosis virus infected in Fathead minnow EPC cells assessed as inhibition of matrix protein gene expression at 0.1 to 100 uM measured after 72 hrs by RT-qPCR method relative to control; assay type: functional; design: scale not given: the % may be the effect or the level left; conditions: dose 0.1-100 µM
[34] = system: Infectious hematopoietic necrosis virus; test: Antiviral activity against Infectious hematopoietic necrosis virus infected in Fathead minnow EPC cells assessed as decrease in virus-induced apoptosis by measuring appearance of normal sized nuclei in cells at 100 uM measured after 72 hrs by Flowcytometry assay; assay type: functional, organism-based
[35] = system: Infectious hematopoietic necrosis virus; test: Antiviral activity against Infectious hematopoietic necrosis virus infected in Fathead minnow EPC cells assessed as decrease in virus-induced apoptosis by measuring viable cells measured after 72 hrs by Annexin V/PI staining based flowcytometry method (reference value: 94%); assay type: functional
Sprivivirus cyprinus [36] = test: Antiviral activity against spring viremia of carp virus infected in Fat head minnow EPC cells assessed as inhibition of N protein gene expression by RT-qPCR method relative to control; assay type: functional, organism-based

Cc1cc(=O)oc2cc(OCCCCCCn3ccnc3C)ccc12
inhibition [1]: 89.5% | IC50 [2]: 6.34 µM

O=c1ccc2ccc(OCCCCCCSc3cccc(O)c3)cc2o1
inhibition [1]: 13.8%

Cc1cc(=O)oc2cc(OCCCCCCBr)ccc12
inhibition [1]: -2.34%

O=c1ccc2ccc(OCCBr)cc2o1
inhibition [1]: 0.13%

COc1ccc2c(C)cc(=O)oc2c1
inhibition [1]: 2.13%

CCCOc1ccc2ccc(=O)oc2c1
inhibition [1]: 5.73%

CCCCOc1ccc2ccc(=O)oc2c1
inhibition [1]: 22%

Cc1cc(=O)oc2cc(OCCCCCCn3ccnc3)ccc12
inhibition [1]: 82.1% | IC50 [2]: 7.63 µM

Cc1cn(CCCCCCOc2ccc3c(C)cc(=O)oc3c2)cn1
inhibition [1]: 65.1%

CCCOc1cc(=O)oc2ccccc12
inhibition [1]: 9.48%

CCCCOc1ccc2c(C)cc(=O)oc2c1
inhibition [1]: -4.37%

O=c1ccc2ccc(OCCCCBr)cc2o1
inhibition [1]: 2.59%

CCCOc1ccc2c(C)cc(=O)oc2c1
inhibition [1]: -1.75%

COc1cc(=O)oc2ccccc12
inhibition [1]: 19.5%

Nc1ccccc1SCCCCCCOc1ccc2ccc(=O)oc2c1
inhibition [1]: 49.3%

O=c1ccc2ccc(OCCCBr)cc2o1
inhibition [1]: -8.24%

COc1ccc2ccc(=O)oc2c1
inhibition [1]: 10.8%

O=c1ccc2ccc(OCCCCCCN3CCCCC3)cc2o1
inhibition [1]: 5.32%

O=c1ccc2ccc(OCCCCCCn3cnc4ccccc43)cc2o1
Activity [3]: 383% | Activity [4]: 98% | Activity [5]: Active | Activity [6]: 95.1% | Activity [7]: 0.4% | Activity [8]: >95% | Activity [9]: 2.55% | Activity [10]: 2.2% | Activity [11]: >95% | Activity [12]: inactive | Activity [13]: Active | Activity [14]: Active | Activity [15]: Non-Toxic | Activity [16]: Active | Activity [17]: Non-Toxic | Activity [18]: inactive | Activity [19]: 50% | Activity [20]: Active | Activity [21]: Active | Activity [22]: 0.26% | inhibition [1]: 99.2% | Activity (Sprivivirus cyprinus [23]): 97.86% | Activity (Sprivivirus cyprinus [24]): Active | Activity [25]: 3.47% | Activity [26]: 2.35% | Activity [27]: Active | Activity [28]: 99.08% | Activity [29]: Active | Activity [30]: Active | Activity [31]: >95% | IC50 [2]: 2.96 µM | IC50 [32]: 2.12 µM | Activity [33]: >95% | Activity [34]: Active | Activity [35]: 93.7% | IC50 (Sprivivirus cyprinus [36]): 1.68 µM

O=c1ccc2ccc(OCCCCCCCCn3cnc4ccccc43)cc2o1
inhibition [1]: 46.1%

NC(=O)c1ncn([C@@H]2O[C@H](CO)[C@@H](O)[C@H]2O)n1
inhibition [1]: 99.1%

C=C(C)COc1cc(=O)oc2ccccc12
inhibition [1]: 9.47%

O=c1ccc2ccc(OCCCCCCn3cncn3)cc2o1
inhibition [1]: 39.2%

C=CCOc1ccc2ccc(=O)oc2c1
inhibition [1]: -5.86%

Cc1cc(=O)oc2cc(OCCCCCCn3cnc4ccccc43)ccc12
inhibition [1]: 94.1% | IC50 [2]: 4.76 µM

O=c1ccc2ccc(OCCn3cnc4ccccc43)cc2o1
inhibition [1]: 5.58%

O=c1ccc2ccc(OCCCCn3cnc4ccccc43)cc2o1
inhibition [1]: 35.1%

Cc1cc(=O)oc2cc(OCCCCCCn3cncn3)ccc12
inhibition [1]: 25.2%

C=C(C)COc1ccc2ccc(=O)oc2c1
inhibition [1]: 14%

C=C(C)COc1ccc2c(C)cc(=O)oc2c1
inhibition [1]: 9.37%

O=c1ccc2ccc(OCCCn3cnc4ccccc43)cc2o1
inhibition [1]: 27.2%

C=CCOc1cc(=O)oc2ccccc12
inhibition [1]: 2.46%

CCCCOc1cc(=O)oc2ccccc12
inhibition [1]: 14.5%
